This note sets out measurements from patent US12180207B2 (ARRAY BIOPHARMA INC., priority 2018, dated 2024).

By IC50 is commonly meant the point on the concentration scale where inhibition reaches its midpoint.

The structures appear in SMILES notation.

In assay [1] the target is FGFR3 (SEQ ID NO: 5, amino acids 449-759) (Homo sapiens (Human), UniProt P22607). Description: LC/MS FGFR3 kobs assay (covalent protein modification). Type of assay: binding. As to conditions: 500 nM FGFR3, 3 μM compound. On the procedure:
The LC/MS FGFR1 and FGFR3 kobs assays were conducted as follows. […] At each time point, the reaction was quenched with 20 μL of 0.4% formic acid. The extent of protein modification by each compound was determined by LC/MS on an Agilent Technologies 6520 Q-TOF LC/MS. Protein signals were then automatically deconvoluted using Agilent Masshunter software. Deconvoluted mass signals were exported to Tibco Spotfire data analysis program for further processing and normalization.
Data analysis included five steps. First, the signals for the “DMSO Controls” were analyzed to determine the percent of signal associated with unmodified FGFR1 or FGFR3 at each time point. Next, the percent of the signal associated with the covalent modification was determined. Third, the average nonmodified “DMSO Control” signal was used to normalize the modified protein signals at each time point. The percent of unmodified protein was fit to an exponential decay model where A0 is the Percent Unmodified at the start of the reaction, and kobs is the observed rate constant over the time period.
Table EC contains kobs values for compounds tested in these assays, presented as the average of multiple determinations if multiple determinations were made. ND=not determined.

The target of assay [2] is recombinant human FGFR1 catalytic domain (amino acids 308-731) (Homo sapiens (Human), UniProt P11362). Description: FGFR1 enzyme activity assay (LanthaScreen TR-FRET). The note with it: 20 min incubation at 22° C., average of multiple determinations if made, read-out: FGFR1 Enz FRET IC50. Type of assay: biochemical. As to the method: FGFR1 kinase activity was measured by the Invitrogen LanthaScreen™ Assay technology which directly measures the amount of substrate phosphorylation by Time-resolved fluorescence energy transfer (TR-FRET) using a fluorescently-labeled peptide and Europium-labeled antibody. Briefly, […] His-tagged recombinant human FGFR1 catalytic domain (amino acids 308-731) (Life Technologies Cat. No. PR4660A) was incubated with 100 nM Alexa Fluor® 647-Poly-GT Peptide Substrate (Life Technologies Cat. No. PV5836) and […] ATP along with test compound in a buffer consisting of 250 mM HEPES, 25 mM MgCl2, 0.05% TritonX-100, pH 7.5, and 2% DMSO. […] After a 20 minutes incubation at 22° C., an equal volume of 2 nM LanthaScreen® Eu-PY20 Antibody (Life Technologies Cat. No. PV5691) and 10 mM EDTA was added to quench the kinase reaction and start the detection reaction. After an additional 60 minute incubation at 22° C., the reaction was measured using a PerkinElmer EnVision multimode plate reader via TR-FRET dual wavelength detection, and the percent of control (POC) calculated using a ratiometric emission factor. 100 POC was determined using no test compounds and 0 POC was determined using no enzyme. The POC values were fit to a 4-parameter logistic curve as a function of the concentration of the compound, and the IC50 value is the point where the curve crosses 50 POC.
(Time-resolved FRET reads energy transfer from a long-lived donor to a nearby acceptor.)

Assay [3] deals with dephosphorylated FGFR1 (SEQ ID NO: 1, amino acids 458 to 765) (Homo sapiens (Human), UniProt P11362). Description: FGFR enzyme binding assay (HTRF tracer displacement), FGFR1. As to conditions: 5 nM dephosphorylated FGFR1, average of multiple determinations if made. As to the method:
(§1) The potency of compounds inhibiting human isoforms of FGFR kinase was determined using Life Technologies' Homogeneous Time Resolved Fluorescence (HTRF)-based binding assay technology. […] After a 60 minute incubation at 22° C., the extent of tracer displacement was determined using a PerkinElmer EnVision multimode plate reader via HTRF dual wavelength detection, and the percent of control (POC) was calculated using a ratiometric emission factor. One hundred POC was determined using no test compound, and 0 POC was determined in the presence of 1 μM of an appropriate control inhibitor.

For assay [4], the target named is phosphorylated FGFR3 (SEQ ID NO: 5, amino acids 449 to 759) (Homo sapiens (Human), UniProt P22607). Description: FGFR enzyme binding assay (HTRF tracer displacement), FGFR3. The note with it: 5 nM phosphorylated FGFR3, average of multiple determinations if made. As to the method: as §1
Assay [5] has as its target recombinant human FGFR2 cytoplasmic domain (amino acids 403-822) (Homo sapiens (Human), UniProt P21802). Nature of the assay: FGFR2 enzyme activity assay (LanthaScreen TR-FRET). Type of assay: biochemical. As to conditions: 15 μM ATP, 20 min incubation at 22° C., average of multiple determinations if made, read-out: FGFR2 Enz FRET IC50. As to the method: FGFR2 kinase activity was measured by the Invitrogen LanthaScreen™ Assay technology which directly measures the amount of substrate phosphorylation by TR-FRET using a fluorescently-labeled peptide and Europium-labeled antibody. Briefly, […] His-tagged recombinant human FGFR2 cytoplasmic domain (amino acids 403-822) (Life Technologies Cat. No. PR5332A) was incubated with 100 nM Alexa Fluor® 647-Poly-GT Peptide Substrate (Life Technologies Cat. No. PV5836) and 15 μM ATP along with test compound in a buffer consisting of 250 mM HEPES, 25 mM MgCl2, 0.05% TritonX-100, pH 7.5, and 2% DMSO. […] After a 20 minute incubation at 22° C., an equal volume of 2 nM LanthaScreen® Eu-PY20 Antibody (Life Technologies Cat. No. PV5691) and 10 mM EDTA were added to quench the kinase reaction and start the detection reaction. After an additional 60 minute incubation at 22° C., the reaction was measured using a PerkinElmer EnVision multimode plate reader via TR-FRET dual wavelength detection, and the percent of control (POC) calculated using a ratiometric emission factor. 100 POC was determined using no test compounds and 0 POC was determined using no enzyme. The POC values were fit to a 4-parameter logistic curve as a function of the concentration of the compound, and the IC50 value is the point where the curve crosses 50 POC.

The target of assay [6] is recombinant human FGFR3 (amino acids R397-T806) (Homo sapiens (Human), UniProt P22607). Description: FGFR3 enzyme activity assay (LanthaScreen TR-FRET). Type of assay: biochemical. The note with it: 25 μM ATP, 10 min incubation at 22° C., average of multiple determinations if made, read-out: FGFR3 Enz FRET IC50. On the procedure: FGFR3 kinase activity was measured by the Invitrogen LanthaScreen™ Assay technology which directly measures the amount of substrate phosphorylation by TR-FRET using a fluorescently-labeled peptide and Europium-labeled antibody. Briefly, […] N-terminal GST-HIS6 fusion protein with a 3C cleavage site recombinant human FGFR3 (amino acids R397-T806) (ProQinase Cat. No. 1068-0000-1) was incubated with 100 nM Alexa Fluor® 647-Poly-GT Peptide Substrate (Life Technologies Cat. No. PV5836) and 25 μM ATP along with test compound in a buffer consisting of 250 mM HEPES, 25 mM MgCl2, 0.05% TritonX-100, pH 7.5, and 2% DMSO. […] After a 10 minute incubation at 22° C., an equal volume of 2 nM LanthaScreen® Eu-PY20 Antibody (Life Technologies Cat. No. PV5691) and 10 mM EDTA were added to quench the kinase reaction and start the detection reaction. After an additional 60 minute incubation at 22° C., the reaction was measured using a PerkinElmer EnVision multimode plate reader via TR-FRET dual wavelength detection, and the percent of control (POC) calculated using a ratiometric emission factor. 100 POC was determined using no test compounds and 0 POC was determined using no enzyme. The POC values were fit to a 4-parameter logistic curve as a function of the concentration of the compound, and the IC50 value is the point where the curve crosses 50 POC.
recombinant human FGFR3 (amino acids R397-T806), sequence (P22607 397-806): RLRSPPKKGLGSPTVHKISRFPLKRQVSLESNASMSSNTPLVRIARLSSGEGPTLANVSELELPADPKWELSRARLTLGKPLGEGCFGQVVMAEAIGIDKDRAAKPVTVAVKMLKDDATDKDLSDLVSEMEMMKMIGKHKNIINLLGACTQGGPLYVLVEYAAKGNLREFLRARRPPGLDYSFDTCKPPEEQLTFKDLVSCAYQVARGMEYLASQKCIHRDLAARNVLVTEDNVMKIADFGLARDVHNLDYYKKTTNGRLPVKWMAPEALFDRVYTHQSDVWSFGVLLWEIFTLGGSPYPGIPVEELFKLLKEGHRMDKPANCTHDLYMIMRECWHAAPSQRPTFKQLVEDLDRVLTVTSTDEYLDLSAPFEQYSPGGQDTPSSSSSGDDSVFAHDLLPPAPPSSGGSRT

dephosphorylated FGFR1 (SEQ ID NO: 1, amino acids 458 to 765), sequence (P11362 458-765): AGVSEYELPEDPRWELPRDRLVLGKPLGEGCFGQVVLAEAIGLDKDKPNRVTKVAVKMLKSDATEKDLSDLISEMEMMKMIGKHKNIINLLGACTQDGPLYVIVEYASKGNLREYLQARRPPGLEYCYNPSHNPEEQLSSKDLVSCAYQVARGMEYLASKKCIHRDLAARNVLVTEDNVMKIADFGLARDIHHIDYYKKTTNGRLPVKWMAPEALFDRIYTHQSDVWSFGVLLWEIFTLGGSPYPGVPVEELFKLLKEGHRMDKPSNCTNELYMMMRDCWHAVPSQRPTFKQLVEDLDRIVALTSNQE
FGFR3 (SEQ ID NO: 5, amino acids 449-759), sequence (P22607 449-759): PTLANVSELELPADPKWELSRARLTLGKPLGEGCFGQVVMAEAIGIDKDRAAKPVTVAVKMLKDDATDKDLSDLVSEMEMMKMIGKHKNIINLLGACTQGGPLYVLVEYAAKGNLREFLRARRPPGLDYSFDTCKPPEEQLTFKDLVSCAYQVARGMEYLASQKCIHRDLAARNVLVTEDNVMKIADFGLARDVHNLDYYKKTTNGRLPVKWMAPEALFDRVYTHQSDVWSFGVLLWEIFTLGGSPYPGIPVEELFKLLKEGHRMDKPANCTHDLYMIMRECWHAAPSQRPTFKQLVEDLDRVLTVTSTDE
phosphorylated FGFR3 (SEQ ID NO: 5, amino acids 449 to 759), sequence (P22607 449-759): as above
recombinant human FGFR2 cytoplasmic domain (amino acids 403-822), sequence (P21802 402-821): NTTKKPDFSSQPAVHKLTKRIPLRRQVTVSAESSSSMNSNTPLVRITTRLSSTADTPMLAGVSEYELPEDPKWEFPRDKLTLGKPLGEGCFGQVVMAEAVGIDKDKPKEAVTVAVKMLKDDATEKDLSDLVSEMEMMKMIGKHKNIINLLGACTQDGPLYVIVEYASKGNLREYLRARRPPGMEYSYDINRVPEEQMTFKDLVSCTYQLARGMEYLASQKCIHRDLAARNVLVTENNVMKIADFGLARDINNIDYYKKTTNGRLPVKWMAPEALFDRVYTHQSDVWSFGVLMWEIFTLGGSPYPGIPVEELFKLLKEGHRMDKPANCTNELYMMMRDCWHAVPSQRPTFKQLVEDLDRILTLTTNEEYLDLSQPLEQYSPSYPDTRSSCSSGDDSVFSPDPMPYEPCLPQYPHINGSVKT
recombinant human FGFR1 catalytic domain (amino acids 308-731), sequence (P11362 other isoform, or with tags, fused parts or gaps): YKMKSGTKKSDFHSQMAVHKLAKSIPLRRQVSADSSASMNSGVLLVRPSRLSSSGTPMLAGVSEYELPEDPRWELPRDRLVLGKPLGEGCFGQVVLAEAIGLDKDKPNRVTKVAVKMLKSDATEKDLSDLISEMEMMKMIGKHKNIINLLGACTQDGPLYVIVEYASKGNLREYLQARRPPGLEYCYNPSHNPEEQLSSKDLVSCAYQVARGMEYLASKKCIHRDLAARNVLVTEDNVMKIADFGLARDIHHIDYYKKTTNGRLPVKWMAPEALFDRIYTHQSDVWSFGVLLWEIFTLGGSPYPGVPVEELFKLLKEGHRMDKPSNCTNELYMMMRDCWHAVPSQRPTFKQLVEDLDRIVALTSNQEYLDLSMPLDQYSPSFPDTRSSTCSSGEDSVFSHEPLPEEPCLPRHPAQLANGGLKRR

`C=CC(=O)N[C@H]1CC[C@H](C(=O)N2CCC(n3cc(-c4cc(OC)c5c(C#N)cnn5c4)cn3)CC2)CC1` [Example 18, N-((1r,4r)-4-(4-(4-(3-cyano-4-methoxypyrazolo[1,5-a]pyridin-6-yl)-1H-pyrazol-1-yl)piperidine-1-carbonyl)cyclohexyl)acryl-amide]: the “FGFR3 Enz kobs” value in assay [1] is 0.0004 min⁻¹. In addition, the IC50 came to 18 nM in assay [2]; 131 nM in assay [3]; 26 nM in assay [4]; 4 nM in assay [5]; 2 nM in assay [6].
As to `C=CC(=O)N[C@H]1CC[C@@H](C(=O)N2CCC(n3cc(-c4cc(OC)c5c(C#N)cnn5c4)cn3)CC2)CC1` [Example 20, N-((1s,4s)-4-(4-(4-(3-cyano-4-methoxypyrazolo[1,5-a]pyridin-6-yl)-1H-pyrazol-1-yl)piperidine-1-carbonyl)cyclohexyl)acryl-amide], the “FGFR3 Enz kobs” value in assay [1] came out at 0.00051 min⁻¹. In addition, the IC50 worked out at 14 nM in assay [2]; 93 nM in assay [3]; 18 nM in assay [4]; 3 nM in assay [5]; 3 nM in assay [6].
On to `C=CC(=O)N1CCC(Oc2cccc(-n3cc(-c4cc(OC)c5c(C#N)cnn5c4)cn3)c2)CC1` [Example 26, 6-(1-(3-((1-acryloylpiperidin-4-yl)oxy)phenyl)-1H-pyrazol-4-yl)-4-methoxypyrazolo[1,5-a]pyridine-3-carbonitrile], for which the “FGFR3 Enz kobs” value in assay [1] was 0.0007 min⁻¹. Moreover, the IC50 came out at 188 nM in assay [2]; 552 nM in assay [3]; 128 nM in assay [4]; 42 nM in assay [5]; 58 nM in assay [6].
Take `C=CC(=O)N[C@H]1C[C@@H](C(=O)N2CCC(n3cc(-c4cc(OC)c5c(C#N)cnn5c4)cn3)CC2)C1` [Example 44, N-((1s,3s)-3-(4-(4-(3-cyano-4-methoxypyrazolo[1,5-a]pyridin-6-yl)-1H-pyrazol-1-yl)piperidine-1-carbonyl)cyclobutyl)acryl-amide]: in assay [1], the “FGFR3 Enz kobs” value stood at 0.001 min⁻¹. Besides, the IC50 in assay [4] was determined as 20 nM; in assay [5] it was 3 nM; in assay [6], 2 nM.
Regarding `C=CC(=O)N[C@H]1C[C@H](C(=O)N2CCC(n3cc(-c4cc(OC)c5c(C#N)cnn5c4)cn3)CC2)C1` [Example 45, N-((1r,3r)-3-(4-(4-(3-cyano-4-methoxypyrazolo[1,5-a]pyridin-6-yl)-1H-pyrazol-1-yl)piperidine-1-carbonyl)cyclobutyl)acryl-amide], in assay [1], the “FGFR3 Enz kobs” value came out at 0.00116 min⁻¹. Besides, the IC50 stood at 44 nM in assay [4], 9 nM in assay [5] and 8 nM in assay [6].
`C=CC(=O)NC1C2CC1C2C(=O)N1CCC(n2cc(-c3cc(OC)c4c(C#N)cnn4c3)cn2)CC1` (stereo not shown) [Example 46, N-(4-(4-(4-(3-cyano-4-methoxypyrazolo[1,5-a]pyridin-6-yl)-1H-pyrazol-1-yl)piperidine-1-carbonyl)bicyclo[1.1.1]pentan-2-yl)acrylamide]: in assay [1], the “FGFR3 Enz kobs” value was determined as 0.00153 min⁻¹. In addition, the IC50 in assay [2] amounted to 12 nM; in assay [3], 23 nM; in assay [4], 4 nM; in assay [5], 2 nM; in assay [6], 3 nM.
Turning to `C=CC(=O)N1CCC(C(=O)N2CC[C@@H](n3cc(-c4cc(OC)c5c(C#N)cnn5c4)cn3)C2)CC1` [Example 53, (R)-6-(1-(1-(1-acryloylpiperidine-4-carbonyl)pyrrolidin-3-yl)-1H-pyrazol-4-yl)-4-methoxypyrazolo[1,5-a]pyridine-3-carbonitrile], the “FGFR3 Enz kobs” value in assay [1] turned out to be 0.00112 min⁻¹. The values for the IC50 in assay [4], in assay [5] and in assay [6] were 31 nM, 7 nM and 3 nM, respectively.
Regarding `C=CC(=O)N[C@H]1CC[C@H](C(=O)N2CC[C@@H](n3cc(-c4cc(OC)c5c(C#N)cnn5c4)cn3)C2)CC1` [Example 54, N-((1R,4r)-4-((R)-3-(4-(3-cyano-4-methoxypyrazolo[1,5-a]pyridin-6-yl)-1H-pyrazol-1-yl)pyrrolidine-1-carbonyl)cyclohexyl)acryl-amide], the “FGFR3 Enz kobs” value in assay [1] stood at 0.00025 min⁻¹. Besides, the IC50 was determined as 47 nM in assay [2]; 142 nM in assay [3]; 25 nM in assay [4]; 16 nM in assay [5]; 16 nM in assay [6].
As for `C=CC(=O)N1CCC(C(=O)N2CC[C@H](n3cc(-c4cc(OC)c5c(C#N)cnn5c4)cn3)C2)CC1` [Example 62, (S)-6-(1-(1-(1-acryloylpiperidine-4-carbonyl)pyrrolidin-3-yl)-1H-pyrazol-4-yl)-4-methoxypyrazolo[1,5-a]pyridine-3-carbonitrile], in assay [1], the “FGFR3 Enz kobs” value stood at 0.00106 min⁻¹. Besides, the results for the IC50 in assay [4], in assay [5] and in assay [6] were 64 nM, 5 nM and 2 nM, respectively.
